From PubChem BioAssay AID2060893 (Molecular Pharmacology Branch, DTP, NCI, 2025)

System: K86415-001-R-J1-PDC complex spheroids, viability
Test: Anticancer human tumor K86415-001-R-J1-PDC patient-derived lung adenocarcinoma cell line growth inhibition [RAS]
Settings: for IC50: curve of first compound; for viability, T/C: stronger effect = lower value
How it was run: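 Agents were tested in combination matrices in half-log decrements from a top concentration at or near clinical Cmax (10 microM if undetermined). Targets were multi-cell spheroids of tumour lines plus HUVEC and MSC stromal cells.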

[1] = second compound 0.0316 µM, first compound 0.00316 µM
[2] = second compound 0.0316 µM, first compound 0.01 µM
[3] = second compound 0.0316 µM, first compound 0.0316 µM
[4] = second compound 0.0316 µM, first compound 0.1 µM
[5] = second compound 0.0316 µM, first compound 0.316 µM
[6] = second compound 0.0316 µM, first compound 1 µM
[7] = second compound 0.1 µM, first compound 0.00316 µM
[8] = second compound 0.1 µM, first compound 0.01 µM
[9] = second compound 0.1 µM, first compound 0.0316 µM
[10] = second compound 0.1 µM, first compound 0.1 µM
[11] = second compound 0.1 µM, first compound 0.316 µM
[12] = second compound 0.1 µM, first compound 1 µM
[13] = second compound 0.316 µM, first compound 0.00316 µM
[14] = second compound 0.316 µM, first compound 0.01 µM
[15] = second compound 0.316 µM, first compound 0.0316 µM
[16] = second compound 0.316 µM, first compound 0.1 µM
[17] = second compound 0.316 µM, first compound 0.316 µM
[18] = second compound 0.316 µM, first compound 1 µM
[19] = second compound 1 µM, first compound 0.00316 µM
[20] = second compound 1 µM, first compound 0.01 µM
[21] = second compound 1 µM, first compound 0.0316 µM
[22] = second compound 1 µM, first compound 0.1 µM
[23] = second compound 1 µM, first compound 0.316 µM
[24] = second compound 1 µM, first compound 1 µM
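Note: spheroids exposed to agents for seven days before readout.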

Q: What does the source list for C=CC(=O)Nc1cc(Nc2nccc(-c3cn(C)c4ccccc34)n2)c(OC)cc1N(C)CCN(C)C + C=CC(=O)N1CCN(c2nc(OCC3CCCN3C)nc3c(F)c(-c4nc(N)cc(C)c4C(F)(F)F)c(Cl)cc23)C(C)C1?
A: IC50 (second compound 0.00316 µM): < 3.16 nM; IC50 (second compound 0.01 µM): < 3.16 nM; IC50 (second compound 0.0316 µM): < 3.16 nM; IC50 (second compound 0.1 µM): < 3.16 nM; IC50 (second compound 0.316 µM): < 3.16 nM; IC50 (second compound 1 µM): < 3.16 nM; viability, T/C (second compound 0.00316 µM, first compound 0.00316 µM): 19.7%; viability, T/C (second compound 0.00316 µM, first compound 0.01 µM): 17.1%; viability, T/C (second compound 0.00316 µM, first compound 0.0316 µM): 15.6%; viability, T/C (second compound 0.00316 µM, first compound 0.1 µM): 13.2%; viability, T/C (second compound 0.00316 µM, first compound 0.316 µM): 8.17%; viability, T/C (second compound 0.00316 µM, first compound 1 µM): 7.25%; viability, T/C (second compound 0.01 µM, first compound 0.00316 µM): 11.2%; viability, T/C (second compound 0.01 µM, first compound 0.01 µM): 10.3%; viability, T/C (second compound 0.01 µM, first compound 0.0316 µM): 11%; viability, T/C (second compound 0.01 µM, first compound 0.1 µM): 8.19%; viability, T/C (second compound 0.01 µM, first compound 0.316 µM): 6.56%; viability, T/C (second compound 0.01 µM, first compound 1 µM): 6.11%; viability, T/C [1]: 10.1%; viability, T/C [2]: 11.4%; viability, T/C [3]: 8.27%; viability, T/C [4]: 6%; viability, T/C [5]: 5.17%; viability, T/C [6]: 5.86%; viability, T/C [7]: 10%; viability, T/C [8]: 9.55%; viability, T/C [9]: 8.9%; viability, T/C [10]: 7.91%; viability, T/C [11]: 5.85%; viability, T/C [12]: 5.65%; viability, T/C [13]: 8.48%; viability, T/C [14]: 10.5%; viability, T/C [15]: 11.3%; viability, T/C [16]: 6.83%; viability, T/C [17]: 5.85%; viability, T/C [18]: 5.41%; viability, T/C [19]: 11%; viability, T/C [20]: 10.2%; viability, T/C [21]: 7.67%; viability, T/C [22]: 8.2%; viability, T/C [23]: 7.08%; viability, T/C [24]: 6.01%

Q: Which results are given for Nc1ccn(C2OC(CO)C(O)C2(F)F)c(=O)n1 (centres undefined) + C#Cc1c(F)ccc2cc(O)cc(-c3ncc4c(N5CC6CCC(C5)N6)nc(OCC56CCCN5CC(F)C6)nc4c3F)c12?
A: IC50 (second compound 0.0316 µM): 83.3 nM; IC50 (second compound 0.1 µM): 93 nM; IC50 (second compound 0.316 µM): 70 nM; IC50 (second compound 1 µM): 45.5 nM; IC50 (second compound 3.16 µM): < 3.16 nM; IC50 (second compound 10 µM): < 3.16 nM; viability, T/C [1]: 92.8%; viability, T/C [2]: 95%; viability, T/C [3]: 70%; viability, T/C [4]: 48.2%; viability, T/C [5]: 24.9%; viability, T/C [6]: 21.6%; viability, T/C [7]: 92.6%; viability, T/C [8]: 96.6%; viability, T/C [9]: 70.8%; viability, T/C [10]: 50.7%; viability, T/C [11]: 26.6%; viability, T/C [12]: 19.6%; viability, T/C [13]: 90%; viability, T/C [14]: 83.3%; viability, T/C [15]: 60.3%; viability, T/C [16]: 48.1%; viability, T/C [17]: 23.8%; viability, T/C [18]: 19.5%; viability, T/C [19]: 79.1%; viability, T/C [20]: 69.5%; viability, T/C [21]: 54%; viability, T/C [22]: 40.9%; viability, T/C [23]: 22.7%; viability, T/C [24]: 15.7%; viability, T/C (second compound 3.16 µM, first compound 0.00316 µM): 41.3%; viability, T/C (second compound 3.16 µM, first compound 0.01 µM): 35.4%; viability, T/C (second compound 3.16 µM, first compound 0.0316 µM): 29.7%; viability, T/C (second compound 3.16 µM, first compound 0.1 µM): 28.9%; viability, T/C (second compound 3.16 µM, first compound 0.316 µM): 23.6%; viability, T/C (second compound 3.16 µM, first compound 1 µM): 21.2%; viability, T/C (second compound 10 µM, first compound 0.00316 µM): 17.4%; viability, T/C (second compound 10 µM, first compound 0.01 µM): 17%; viability, T/C (second compound 10 µM, first compound 0.0316 µM): 16.8%; viability, T/C (second compound 10 µM, first compound 0.1 µM): 13.6%; viability, T/C (second compound 10 µM, first compound 0.316 µM): 15.5%; viability, T/C (second compound 10 µM, first compound 1 µM): 14.5%
